The values that follow are results of earlier work, collected in patent publication US20090170823A1, “Dosage Regimens and Pharmaceutical Compositions and Packages for Emergency Contraception” (Duramed Pharmaceuticals, Inc., priority 2007, published 2009).

The structures appear in SMILES notation.

The conditions of this data set: relative to 30 μg ethinyl estradiol; see EP 0 253 607.

As for `C[C@]12CC[C@@H]3c4ccc(O)cc4CC[C@H]3[C@@H]1CC[C@@H]2O` [17β-estradiol], the “amount roughly equivalent to 30 μg of ethinyl estradiol” value is reported as ~2,000 μg.

With `C#C[C@]1(O)CC[C@H]2[C@@H]3CCc4cc(OC)ccc4[C@H]3CC[C@@]21C` [mestranol], the amount roughly equivalent to 30 μg of ethinyl estradiol is about 60 µg.
